The subject of this assay is NarL associated promoter. The assay is described as follows: transfer of natural NarL with its associated promoter into B. subtilis. It is filed as cell-based. The note with it: natural NarL protein with its associated promoter, previous attempts.

For the substance “NarL: response regulator (RR) protein NarL from E. coli (UniProt P0AF28)”, the “functional transcription in B. subtilis” value is listed as “failed to result in functional transcription”.

For the origin of these results see patent publication US20180258459A1, “NITRATE BIOSENSOR” (priority 2015, published 2018).
